Results on 9 compounds are retold here after patent US12209102B2, “Heterocyclic compounds and uses thereof” (Kumquat Biosciences Inc., priority 2022, dated 2025).

One assay concerns the target T1, K-Ras G12D (Homo sapiens, UniProt P01116, G12D).
T1 construct: made in house; host or cells: E. coli BL21 (DE3)
In words: HTRF resonance energy transfer assay, K-Ras G12D / SOS1 interaction. Type of assay: biochemical. Particulars: HTRF assay of Example 5; read-out: IC50 against K-Ras G12D. Summed up:
(§1)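 Read-out: HTRF 665/620 nm ratio (excitation 337 nm) after roughly 10 min or longer incubation, used to derive IC50. Donor anti-GST-Eu on GST-K-Ras; acceptor anti-6His-XL665 on His-hSOS1. Duplicate dose series from 10 μM down to 0.01 μM.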
On the technique in general: In TR-FRET formats the signal depends on donor and acceptor labels being close together.

The next assay concerns the target T2, K-Ras G12S (Homo sapiens, UniProt P01116, G12S).
T2 construct: made in house; host or cells: E. coli BL21 (DE3)
The assay is described as follows: HTRF resonance energy transfer assay, K-Ras G12S / SOS1 interaction. Type of assay: biochemical. The following applies: HTRF assay of Example 5; read-out: IC50 against K-Ras G12S. The method in brief: as §1

The target in the next assay is T3, K-Ras G12V (Homo sapiens, UniProt P01116, G12V).
T3 construct: made in house; host or cells: E. coli BL21 (DE3)
T3 sequence (P01116 1-188 isoform P01116-2 G12V): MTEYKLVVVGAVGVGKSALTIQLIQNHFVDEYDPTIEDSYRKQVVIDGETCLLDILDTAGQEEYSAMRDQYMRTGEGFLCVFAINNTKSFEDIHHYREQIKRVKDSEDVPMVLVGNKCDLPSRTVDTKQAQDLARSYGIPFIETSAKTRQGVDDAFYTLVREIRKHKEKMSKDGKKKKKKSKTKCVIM
In words: HTRF resonance energy transfer assay, K-Ras G12V / SOS1 interaction. Type of assay: biochemical. The following applies: HTRF assay of Example 5; read-out: IC50 against K-Ras G12V. The method in brief:
as §1

A further assay addresses T4, K-Ras WT (Homo sapiens, UniProt P01116).
T4 construct: made in house; host or cells: E. coli BL21 (DE3)
The assay is described as follows: HTRF resonance energy transfer assay, K-Ras WT / SOS1 interaction. The format is biochemical. Particulars: HTRF assay of Example 5; read-out: IC50 against K-Ras WT. Summed up: as §1

For another assay, the system named is GP2D cells. In words: Ras cellular assay, growth of cells with K-Ras G12D mutation (CellTiter-Glo). The following applies: cell growth, Example 9, G12D mutation, read-out: IC50 against GP2D cells. Type of assay: cell-based. (In general: ATP-based viability assays read luminescence as a measure of living cells.)
In a further assay the test system is SW620 cells. In words: Ras cellular assay, growth of cells with K-Ras G12V mutation (CellTiter-Glo). Type of assay: cell-based. Particulars: Homo sapiens, SW-620; cell growth, Example 9, G12V mutation; read-out: IC50 against SW620 cells. Summed up: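 SW620 (K-Ras G12V) cells, e.g. 800/well in RPMI-1640 with 10% heat-inactivated FBS on standard or ultra-low attachment plates, were dosed the day after plating with e.g. a 10-point 3-fold series. Viability by CellTiter-Glo luminescence about 6 days later; IC50 from four-parameter fit.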

T2 sequence (P01116 1-188 isoform P01116-2 G12S): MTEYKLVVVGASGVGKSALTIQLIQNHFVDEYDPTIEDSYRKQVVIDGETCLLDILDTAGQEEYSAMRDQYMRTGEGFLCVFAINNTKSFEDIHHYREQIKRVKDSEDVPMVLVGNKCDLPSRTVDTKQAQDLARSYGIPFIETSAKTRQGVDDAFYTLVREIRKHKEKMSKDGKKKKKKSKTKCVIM
T1 sequence (P01116 1-188 isoform P01116-2 G12D): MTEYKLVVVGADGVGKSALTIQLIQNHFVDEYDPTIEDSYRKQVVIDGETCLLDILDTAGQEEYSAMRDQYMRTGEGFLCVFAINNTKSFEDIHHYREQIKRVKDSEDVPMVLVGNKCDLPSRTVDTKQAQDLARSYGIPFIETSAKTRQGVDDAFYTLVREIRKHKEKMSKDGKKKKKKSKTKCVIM
T4 sequence (P01116 1-188 isoform P01116-2): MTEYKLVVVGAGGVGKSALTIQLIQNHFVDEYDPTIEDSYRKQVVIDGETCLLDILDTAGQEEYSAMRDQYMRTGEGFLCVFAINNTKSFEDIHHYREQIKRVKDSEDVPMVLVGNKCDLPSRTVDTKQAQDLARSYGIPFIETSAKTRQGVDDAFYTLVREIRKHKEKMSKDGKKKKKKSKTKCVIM

A word on the IC50: it is the concentration that inhibits the measured activity by half. As for `CN(C)CCCN1c2nc(OC[C@@]34CCCN3C[C@H](F)C4)nc3c(F)c(-c4ccc(F)c5sc(N)c(C#N)c45)c(Cl)c(c23)OCC1CC#N` (stereo partly drawn) [Compound 896, 2-amino-4-(8-chloro-5-(cyanomethyl)-4-(3-(dimethylamino)propyl)-10-fluoro-2-(((2R,7aS)-2-fluorotetrahydro-1H-pyrrolizin-7a(5H)-yl)methoxy)-5,6-dihydro-4H-[1,4]oxazepino[5,6,7-de]quinazolin-9-yl)-7-fluorobenzo[b]thiophene-3-carbonitrile], the IC50 on K-Ras G12D is less than 0.1 µM; on K-Ras G12S, less than 0.1 µM; on K-Ras G12V, less than 0.1 µM; on K-Ras WT, less than 0.1 µM; in the assay with GP2D cells, less than 0.5 µM; with SW620 cells, less than 5 µM.

Take `C[C@H](O)[C@H]1[C@@H](C)Oc2c(Cl)c(-c3ccc(F)c4sc(N)c(C#N)c34)c(F)c3nc(OC[C@@]45CCCN4C[C@H](F)C5)nc(c23)N1CC(F)F` [Compound 911, 2-amino-4-((5S,6R)-8-chloro-4-(2,2-difluoroethyl)-10-fluoro-2-(((2R,7aS)-2-fluorotetrahydro-1H-pyrrolizin-7a(5H)-yl)methoxy)-5-((S)-1-hydroxyethyl)-6-methyl-5,6-dihydro-4H-[1,4]oxazepino[5,6,7-de]quinazolin-9-yl)-7-fluorobenzo[b]thiophene-3-carbonitrile]: the IC50 at K-Ras G12D was less than 0.1 µM; on K-Ras G12S, less than 0.1 µM; at K-Ras G12V, less than 0.1 µM; on K-Ras WT, less than 0.1 µM; in the assay with GP2D cells it was less than 0.5 µM; in the assay with SW620 cells, less than 5 µM.

With `N#Cc1c(N)sc2c(F)ccc(-c3c(Cl)c4c5c(nc(OC[C@@]67CCCN6C[C@H](F)C7)nc5c3F)N(CC(F)F)[C@@H](C(O)C(F)(F)F)CO4)c12` (stereo partly drawn) [Compound 919, 2-amino-4-((5R)-8-chloro-4-(2,2-difluoroethyl)-10-fluoro-2-(((2R,7aS)-2-fluorotetrahydro-1H-pyrrolizin-7a(5H)-yl)methoxy)-5-(2,2,2-trifluoro-1-hydroxyethyl)-5,6-dihydro-4H-[1,4]oxazepino[5,6,7-de]quinazolin-9-yl)-7-fluorobenzo[b]thiophene-3-carbonitrile], the half-inhibitory concentration (IC50) at K-Ras G12D is less than 0.1 µM; on K-Ras G12S, less than 0.1 µM; on K-Ras G12V it was less than 0.1 µM; at K-Ras WT, less than 0.1 µM; in the assay on GP2D cells it was less than 0.5 µM; in the assay on SW620 cells it was less than 5 µM.

Take `N#Cc1c(N)sc2c(F)ccc(-c3c(Cl)c4c5c(nc(OC[C@@]67CCCN6C[C@H](F)C7)nc5c3F)N(CC(F)F)C(C3(F)CC3)CO4)c12` (stereo partly drawn) [Compound 943, 2-amino-4-(8-chloro-4-(2,2-difluoroethyl)-10-fluoro-5-(1-fluorocyclopropyl)-2-(((2R,7aS)-2-fluorotetrahydro-1H-pyrrolizin-7a(5H)-yl)methoxy)-5,6-dihydro-4H-[1,4]oxazepino[5,6,7-de]quinazolin-9-yl)-7-fluorobenzo[b]thiophene-3-carbonitrile]: the IC50 at K-Ras G12D is less than 0.1 µM; at K-Ras G12S, less than 0.1 µM; at K-Ras G12V, less than 0.1 µM; at K-Ras WT, less than 0.1 µM; with GP2D cells it was less than 0.5 µM; in the assay with SW620 cells, less than 5 µM.

For the compound `N#Cc1c(N)sc2c(F)ccc(-c3c(Cl)c4c5c(nc(OC[C@@]67CCCN6C[C@H](F)C7)nc5c3F)N(CCC(F)F)[C@@H](C3(O)CC3)CO4)c12` [Compound 986, 2-amino-4-((R)-8-chloro-4-(3,3-difluoropropyl)-10-fluoro-2-(((2R,7aS)-2-fluorotetrahydro-1H-pyrrolizin-7a(5H)-yl)methoxy)-5-(1-hydroxycyclopropyl)-5,6-dihydro-4H-[1,4]oxazepino[5,6,7-de]quinazolin-9-yl)-7-fluorobenzo[b]thiophene-3-carbonitrile], the 50% inhibitory concentration (IC50) at K-Ras G12D was less than 0.1 µM; on K-Ras G12S it was less than 0.1 µM; at K-Ras G12V, less than 0.1 µM; on K-Ras WT, less than 0.1 µM; with GP2D cells it was less than 0.5 µM; with SW620 cells it was less than 5 µM.

As to `C[C@@H]1C[C@@H](N2CCOc3c(Cl)c(-c4ccc(F)c5sc(N)c(C#N)c45)c(F)c4nc(OC[C@@]56CCCN5C[C@H](F)C6)nc2c34)CN1` [Compound 1016, 2-amino-4-(8-chloro-10-fluoro-2-(((2R,7aS)-2-fluorotetrahydro-1H-pyrrolizin-7a(5H)-yl)methoxy)-4-((3R,5R)-5-methylpyrrolidin-3-yl)-5,6-dihydro-4H-[1,4]oxazepino[5,6,7-de]quinazolin-9-yl)-7-fluorobenzo[b]thiophene-3-carbonitrile], the IC50 was less than 0.1 µM on K-Ras G12D; less than 0.1 µM at K-Ras G12S; less than 0.1 µM at K-Ras G12V; less than 0.1 µM at K-Ras WT; less than 0.5 µM in the assay on GP2D cells; less than 5 µM in the assay with SW620 cells.

In the case of `N#Cc1c(N)sc2c(F)ccc(-c3c(Cl)c4c5c(nc(OC[C@@]67CCCN6C[C@H](F)C7)nc5c3F)N(CC(F)F)[C@@H](C3CC3)CO4)c12` [Compound 1022, 2-amino-4-((S)-8-chloro-5-cyclopropyl-4-(2,2-difluoroethyl)-10-fluoro-2-(((2R,7aS)-2-fluorotetrahydro-1H-pyrrolizin-7a(5H)-yl)methoxy)-5,6-dihydro-4H-[1,4]oxazepino[5,6,7-de]quinazolin-9-yl)-7-fluorobenzo[b]thiophene-3-carbonitrile], the IC50 on K-Ras G12D is less than 0.1 µM; on K-Ras G12S, less than 0.1 µM; on K-Ras G12V, less than 0.1 µM; at K-Ras WT, less than 0.1 µM; with GP2D cells, less than 0.5 µM; with SW620 cells, less than 5 µM.

Turning to `N#Cc1c(N)sc2c(F)ccc(-c3c(Cl)c4c5c(nc(OC[C@@]67CCCN6C[C@H](F)C7)nc5c3F)N(C3CCOC3)[C@@H](C3(O)CC3)CO4)c12` (stereo partly drawn) [Compound 1031, 2-amino-4-((5R)-8-chloro-10-fluoro-2-(((2R,7aS)-2-fluorotetrahydro-1H-pyrrolizin-7a(5H)-yl)methoxy)-5-(1-hydroxycyclopropyl)-4-(tetrahydrofuran-3-yl)-5,6-dihydro-4H-[1,4]oxazepino[5,6,7-de]quinazolin-9-yl)-7-fluorobenzo[b]thiophene-3-carbonitrile], the IC50 is less than 0.1 µM at K-Ras G12D; less than 0.1 µM at K-Ras G12S; less than 0.1 µM at K-Ras G12V; less than 0.1 µM on K-Ras WT; less than 0.5 µM with GP2D cells; less than 5 µM with SW620 cells.

As for `N#Cc1c(N)sc2c(F)ccc(-c3c(Cl)c4c5c(nc(OC[C@@]67CCCN6C[C@H](F)C7)nc5c3F)N(CCC(F)F)[C@@H](C(F)F)CO4)c12` [Compound 1035, 2-amino-4-((R)-8-chloro-5-(difluoromethyl)-4-(3,3-difluoropropyl)-10-fluoro-2-(((2R,7aS)-2-fluorotetrahydro-1H-pyrrolizin-7a(5H)-yl)methoxy)-5,6-dihydro-4H-[1,4]oxazepino[5,6,7-de]quinazolin-9-yl)-7-fluorobenzo[b]thiophene-3-carbonitrile], the IC50 was less than 0.1 µM at K-Ras G12D; less than 0.1 µM on K-Ras G12S; less than 0.1 µM at K-Ras G12V; less than 0.1 µM at K-Ras WT; less than 0.5 µM in the assay on GP2D cells; less than 5 µM in the assay on SW620 cells.
